Test results from patent US20120322715A1, “SERINE HYDROLASE FORMULATION” (NOVOZYMES A/S, priority 2010, published 2012).

Test system: Lipoclean lipase
Assay: Storage stability of liquid Lipoclean lipase formulation: residual lipase activity (PNP-Palmitate hydrolysis, 405 nm) versus frozen reference
Format: biochemical
Details: 2% enzyme protein, sorbitol and glycerol, 0.08% Z-GAY-H, compared with frozen reference sample
Description: Lipoclean formulations, per se (LCLU/g) residual activities: The Lipase was formulated from crude concentrate with standard formulation ingredients (sorbitol and glycerol) with and without the serine protease inhibitor (2% enzyme protein, 0.08% Z-GAY-H added with a 1% DMSO solution). The solution was split into separate vials which were incubated at different temperature and times and compared in activity with a frozen reference sample frozen directly after mixing. The lipase activity was measured by ester bond hydrolysis in the substrate PNP-Palmitate (C:16) and releases PNP which is yellow and can be detected at 405 nm.

- residual activities (lipase) (2 weeks, 50° C.): 71%
- residual activities (lipase) (4 weeks, 40° C.): 70%
- residual activities (lipase) (4 weeks, 50° C.): 56%
Substance: Z-GAY-H [0.08% serine protease inhibitor]
